According to the NIST ThermoML archive (doi:10.1016/j.tca.2004.12.009):
Numbers after ± are expanded uncertainties.

Experiments:
[1] = Molar enthalpy of transition or fusion; details: DSC
[2] = DTA

In the case of `NC(N)=Nc1nc(CSCC/C(N)=N/S(N)(=O)=O)cs1` [famotidine], the “Molar enthalpy of transition or fusion” value ([1]; Crystal 1) is reported as 55.4 ± 1.8 kJ/mol, the “Molar enthalpy of transition or fusion” value ([1]; Metastable crystal) is reported as 51.2 ± 3.4 kJ/mol and the Normal melting temperature ([2]; Crystal 1) is reported as 170.60 ± 0.6 °C. The Normal melting temperature ([2]; Metastable crystal) was 162.90 ± 0.9 °C.
